# According to PMC9823088, “The oral selective estrogen receptor degrader GDC-0810 (ARN-810) in postmenopausal women with hormone receptor-positive HER2-negative (HR + /HER2 −) advanced/metastatic breast cancer” (Breast Cancer Research and Treatment, 2022):
# How the values were obtained:
# [1] = Plasma pharmacokinetics of GDC-0810 and glucuronide metabolites; format: in vivo, human
# Procedure: (§1) Blood samples were collected for pharmacokinetic assessments. Tumor assessments were performed at screening and every 8 weeks from cycle 1, day 1 (C1D1). Radiographic assessment of objective tumor response or disease progression was based on Response Evaluation Criteria in Solid Tumors (RECIST v1.1). Transvaginal ultrasound scans were performed to monitor endometrial thickness at screening, at every 6 months from C1D1, and at the end of treatment. Imaging with [^18F]-fluoroestradiol positron emission tomography (FES-PET) was performed to quantify ER expression in tumors and to assess for pharmacodynamic response. Further assessment details are provided in Supplementary Methods.
# CYP2B6 and CYP2C enzymes. […]
# (§2) Blood samples were collected for pharmacokinetic assessment on lead-in day −7 and cycle 2 day 1 (C2D1) at predose (0 hour) and postdose (0.5, 1, 1.5, 2, 3, 4, 6, 8, and 24 hours), (plus at 48 hours postdose for day−7). Full plasma pharmacokinetic profiles were obtained for GDC-0810 and its glucuronide metabolites (acyl-glucuronide and N-glucuronide) using a validated liquid chromatography/ tandem mass spectrometry method, and analyzed using non-compartmental methods for all patients in the dose escalation cohorts.
# (§3) Tumor assessments were performed at screening and every 8 weeks from cycle-1, day-1 […]
# [2] = system: CYP2C enzymes; parameters: method as in printed; details: stated as reason for dose adjustments; ref not given; cited from earlier work
# [3] = system: tamoxifen-resistant ER + breast cancer xenograft; details: tamoxifen-resistant ER + breast cancer xenograft models; cited from earlier work
# [4] = system: CYP2B6; parameters: method as in printed; details: stated as reason for dose adjustments; ref not given; cited from earlier work
# [5] = Endometrial thickness by transvaginal ultrasound; format: in vivo, human
# Procedure: as §1, with “Methods. […]” for “Methods.”
# Tumor assessments were performed at screening and every 8 weeks from cycle-1, day-1 (C1D1). Radiographic assessment of objective tumor response or disease progression was based on Response Evaluation Criteria in Solid Tumors (RECIST v1.1). Transvaginal ultrasound scans were performed to monitor endometrial thickness at screening, at every 6 months from C1D1, and at the end of treatment. […]
# [6] = system: ER; test: [18F]-fluoroestradiol PET (FES-PET) pharmacodynamic response; format: in vivo, human
# Procedure: as §1, with “Methods. […]” for “Methods.”
# as §3
# Imaging with [18F]-fluoroestradiol positron emission tomography
# (FES-PET) was performed to quantify ER expression in tumors and to assess for pharmacodynamic response. In phase Ia, FES-PET scans were acquired at screening and on C2D3 at 18-24 hours post the C2D2 dose. Scans were repeated during cycle 3 if the C2D3 scan […]
# (§4) In phase IIa cohort A1 patients, FES-PET scans were acquired at screening and on C3D3 at 18-24 hours post the C3D2 dose. Scans were repeated at the time of progression if feasible. The mean percent change from baseline in SUVmax (corrected for background activity) for up to five index lesions was calculated for each patient; more details are presented in (1). Optional tumor biopsies were collected at baseline (screening)
# [7] = system: ER and Ki-67; test: Paired tumor biopsies, ER protein levels and Ki-67; format: in vivo, human; details: after one cycle (28 days of treatment); samples from 3 patients only, no conclusions could be drawn
# Procedure: CYP2B6 and CYP2C enzymes. No hormonal therapy, chemotherapy, immunotherapy, or experimental anti-cancer medications were permitted during the study.
# as §2
# Tumor assessments were performed at screening and every 8 weeks from cycle-1, day-1 (C1D1). Radiographic assessment of objective tumor response or disease progression was based on Response Evaluation Criteria in Solid Tumors (RECIST v1.1). […] Imaging with [18F]-fluoroestradiol positron emission tomography (FES-PET) was performed to quantify ER expression in tumors and to assess for pharmacodynamic response. […]
# as §4, with “Scans were repeated at the time of progression if feasible.” left out, “Optional tumor biopsies were collected at baseline (screening)” left out
smiles,measurement,setting,value
CC/C(=C(/c1ccc(/C=C/C(=O)O)cc1)c1ccc2[nH]ncc2c1)c1ccc(F)cc1Cl [GDC-0810],"average exposure at steady state (AUC0-24 h), non-fasted compared to fasted",[1]; 600 mg QD,1.5 fold
same,"average exposure at steady state (Cmax), non-fasted compared to fasted",[1]; 600 mg QD,twofold
same,drug accumulation,[1]; following multiple dosing,Minimal drug accumulation
same,half-life,"[1]; human, plasma, oral, 600-mg QD, non-fasted condition, read-out: mean terminal half-life (converted)",~8 h
same,Tmax,"[1]; human, plasma, oral, after dosing, read-out: median Tmax",1 to 3 h
same,pharmacokinetic profile,[1]; up to 600 mg,linear and dose proportional
same,effects on CYP2C enzymes,[2],inhibitory effects
same,tumor regression,[3],induced tumor regression
same,effects on CYP2B6,[4],inhibitory effects
same,patients with an increase in the thickness of endometrium compared to baseline,[5]; 10 patients in phase Ia with baseline and at least one follow-up scan,9 (90%) n (%)
same,"change in endometrial thickness, range",[5]; phase Ia,0 to 11 mm
same,mean change in endometrial thickness,[5]; phase Ia,4.4 mm
same,median change in endometrial thickness,[5]; phase Ia,3.5 mm
same,patients with complete or near-complete reduction in FES uptake,[6]; 600 mg QD (fasting and non-fasting),≥ 80%
same,response rates by FES-PET,"[6]; 600-mg QD, fasting, and non-fasting, including tumors harboring ESR1 mutations",80–100%
same,patients with complete or near complete (> 90%) suppression of FES uptake,[6]; all patients who had FES-PET scans,78%
same,FES reduction,[6]; in vivo,> 90%
same,patients with complete or near complete (> 90%) suppression of FES uptake,[6]; patients with tumors harboring ESR1 mutations,18 of 26
same,patients with complete or near complete (> 90%) suppression of FES uptake,"[6]; phase IIa dose expansion, baseline and C3D3 scans",7 of 10
same,patients with a single lesion considered FES-avid (SUVmax corrected > 1.5),"[6]; phase Ia dose escalation, C2D3",two
same,patients with complete or near complete (> 90%) suppression of FES uptake,"[6]; phase Ia, baseline and C2D3 scans",24 of 30
same,ER and Ki-67 levels in tumor specimens,[7],reduced ER and Ki-67 levels
